In the supplement of paper PMC9386025:

What follows are compounds tested on FIMM-PDC5 (patient-derived ovarian cancer cells) (assay: drug sensitivity score (DSS) (DSS (dimensionless)); higher = more sensitive (stronger drug response)). Conditions: genetic perturbation: none (patient-derived cell culture).
Summary of the method: (§1)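 Ovarian cancer cell lines, after at least three days of shRNA induction with 100 ng/ml doxycycline, and patient-derived cultures were plated at 1 000 – 1 500 cells per well into 384-well plates pre-loaded with drugs at five concentrations spanning a 10,000-fold range. Plates were then kept for three days at 37 °C and 5.0 % CO2. Viability was measured as CellTiter-Glo luminescence on a PHERAstar FS, and each drug's dose-response curve was reduced to a drug sensitivity score computed by a previously described method.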
CO[C@H]1CC[C@H](N2C(=O)CNc3ncc(-c4ccc(C(C)(C)O)nc4)nc32)CC1 [CC-223] was tested, and the drug sensitivity score was 10.3. CC1(C)OCCn2c1nc1c(N3CCOCC3)nc(-c3cnc(N)nc3)nc12 [GDC-0084] gave a drug sensitivity score of 17. Cc1sc2c(c1C)C(c1ccc(Cl)cc1)=N[C@@H](CC(=O)NCCCCNC(=O)COc1cccc3c1C(=O)N(C1CCC(=O)NC1=O)C3=O)c1nnc(C)n1-2 (some centres undefined) [dBET1] showed a drug sensitivity score of 11.

Each compound was assayed on FIMM-PDC4 (patient-derived ovarian cancer cells) in the same assay as above. Conditions: genetic perturbation: none (patient-derived cell culture).
Summary of the method: as §1
In the case of CO[C@H]1CC[C@H](N2C(=O)CNc3ncc(-c4ccc(C(C)(C)O)nc4)nc32)CC1 [CC-223], the drug sensitivity score is reported as 5.9. In the case of CC1(C)OCCn2c1nc1c(N3CCOCC3)nc(-c3cnc(N)nc3)nc12 [GDC-0084], the drug sensitivity score is reported as 13.1. Cc1sc2c(c1C)C(c1ccc(Cl)cc1)=N[C@@H](CC(=O)NCCCCNC(=O)COc1cccc3c1C(=O)N(C1CCC(=O)NC1=O)C3=O)c1nnc(C)n1-2 (some centres undefined) [dBET1] was tested, and the drug sensitivity score was 8.1.

The compounds below were run on FIMM-PDC3 (patient-derived ovarian cancer cells) in the same assay as above. Conditions: genetic perturbation: none (patient-derived cell culture).
Summary of the method: as §1
For CO[C@H]1CC[C@H](N2C(=O)CNc3ncc(-c4ccc(C(C)(C)O)nc4)nc32)CC1 [CC-223], the drug sensitivity score was 3.5. Compound CC1(C)OCCn2c1nc1c(N3CCOCC3)nc(-c3cnc(N)nc3)nc12 [GDC-0084] has a drug sensitivity score of 7.9. Cc1sc2c(c1C)C(c1ccc(Cl)cc1)=N[C@@H](CC(=O)NCCCCNC(=O)COc1cccc3c1C(=O)N(C1CCC(=O)NC1=O)C3=O)c1nnc(C)n1-2 (some centres undefined) [dBET1] showed a drug sensitivity score of 2.7.

The compounds below were run on FIMM-PDC2 (patient-derived ovarian cancer cells) in the same assay as above. Conditions: genetic perturbation: none (patient-derived cell culture).
Summary of the method: as §1
CO[C@H]1CC[C@H](N2C(=O)CNc3ncc(-c4ccc(C(C)(C)O)nc4)nc32)CC1 [CC-223] gave a drug sensitivity score of 4.7. CC1(C)OCCn2c1nc1c(N3CCOCC3)nc(-c3cnc(N)nc3)nc12 [GDC-0084] was tested, and the drug sensitivity score was 10.3. Work on Cc1sc2c(c1C)C(c1ccc(Cl)cc1)=N[C@@H](CC(=O)NCCCCNC(=O)COc1cccc3c1C(=O)N(C1CCC(=O)NC1=O)C3=O)c1nnc(C)n1-2 (some centres undefined) [dBET1] yielded a drug sensitivity score of 2.6.

What follows are compounds tested on FIMM-PDC1 (patient-derived ovarian cancer cells) in the same assay as above. Conditions: genetic perturbation: none (patient-derived cell culture).
Summary of the method: as §1
CO[C@H]1CC[C@H](N2C(=O)CNc3ncc(-c4ccc(C(C)(C)O)nc4)nc32)CC1 [CC-223] gave a drug sensitivity score of 3.2. With CC1(C)OCCn2c1nc1c(N3CCOCC3)nc(-c3cnc(N)nc3)nc12 [GDC-0084] the drug sensitivity score was 7.65. Work on Cc1sc2c(c1C)C(c1ccc(Cl)cc1)=N[C@@H](CC(=O)NCCCCNC(=O)COc1cccc3c1C(=O)N(C1CCC(=O)NC1=O)C3=O)c1nnc(C)n1-2 (some centres undefined) [dBET1] yielded a drug sensitivity score of 0.1.

Each compound was assayed on OVSAHO in the same assay as above. Conditions: genetic perturbation: DOX-induced PTK7 shRNA knockdown.
Summary of the method: as §1
Compound CO[C@H]1CC[C@H](N2C(=O)CNc3ncc(-c4ccc(C(C)(C)O)nc4)nc32)CC1 [CC-223] has a drug sensitivity score of 6.6. In the case of CC1(C)OCCn2c1nc1c(N3CCOCC3)nc(-c3cnc(N)nc3)nc12 [GDC-0084], the drug sensitivity score is reported as 10.2. Cc1sc2c(c1C)C(c1ccc(Cl)cc1)=N[C@@H](CC(=O)NCCCCNC(=O)COc1cccc3c1C(=O)N(C1CCC(=O)NC1=O)C3=O)c1nnc(C)n1-2 (some centres undefined) [dBET1] showed a drug sensitivity score of 4.3.

Same assay, conditions: genetic perturbation: DOX-induced control shRNA
With CO[C@H]1CC[C@H](N2C(=O)CNc3ncc(-c4ccc(C(C)(C)O)nc4)nc32)CC1 [CC-223] the drug sensitivity score was 4.9. Work on CC1(C)OCCn2c1nc1c(N3CCOCC3)nc(-c3cnc(N)nc3)nc12 [GDC-0084] yielded a drug sensitivity score of 9.7. Cc1sc2c(c1C)C(c1ccc(Cl)cc1)=N[C@@H](CC(=O)NCCCCNC(=O)COc1cccc3c1C(=O)N(C1CCC(=O)NC1=O)C3=O)c1nnc(C)n1-2 (some centres undefined) [dBET1] gave a drug sensitivity score of 3.4.

Each compound was assayed on Kuramochi in the same assay as above. Conditions: genetic perturbation: DOX-induced PTK7 shRNA knockdown.
Summary of the method: as §1
For CO[C@H]1CC[C@H](N2C(=O)CNc3ncc(-c4ccc(C(C)(C)O)nc4)nc32)CC1 [CC-223], the drug sensitivity score was 5.1. Work on CC1(C)OCCn2c1nc1c(N3CCOCC3)nc(-c3cnc(N)nc3)nc12 [GDC-0084] yielded a drug sensitivity score of 10.2. Compound Cc1sc2c(c1C)C(c1ccc(Cl)cc1)=N[C@@H](CC(=O)NCCCCNC(=O)COc1cccc3c1C(=O)N(C1CCC(=O)NC1=O)C3=O)c1nnc(C)n1-2 (some centres undefined) [dBET1] has a drug sensitivity score of 3.9.

Same assay, conditions: genetic perturbation: DOX-induced control shRNA
Work on CO[C@H]1CC[C@H](N2C(=O)CNc3ncc(-c4ccc(C(C)(C)O)nc4)nc32)CC1 [CC-223] yielded a drug sensitivity score of 4.6. CC1(C)OCCn2c1nc1c(N3CCOCC3)nc(-c3cnc(N)nc3)nc12 [GDC-0084] gave a drug sensitivity score of 6.3. Compound Cc1sc2c(c1C)C(c1ccc(Cl)cc1)=N[C@@H](CC(=O)NCCCCNC(=O)COc1cccc3c1C(=O)N(C1CCC(=O)NC1=O)C3=O)c1nnc(C)n1-2 (some centres undefined) [dBET1] has a drug sensitivity score of 4.4.

These compounds were tested on FIMM-PDC6 (patient-derived ovarian cancer cells) in the same assay as above. Conditions: genetic perturbation: none (patient-derived cell culture).
Summary of the method: as §1
Compound CO[C@H]1CC[C@H](N2C(=O)CNc3ncc(-c4ccc(C(C)(C)O)nc4)nc32)CC1 [CC-223] has a drug sensitivity score of 5.3. CC1(C)OCCn2c1nc1c(N3CCOCC3)nc(-c3cnc(N)nc3)nc12 [GDC-0084] showed a drug sensitivity score of 13.3. Cc1sc2c(c1C)C(c1ccc(Cl)cc1)=N[C@@H](CC(=O)NCCCCNC(=O)COc1cccc3c1C(=O)N(C1CCC(=O)NC1=O)C3=O)c1nnc(C)n1-2 (some centres undefined) [dBET1] gave a drug sensitivity score of 7.5.

These compounds were tested on JHOS2 in the same assay as above. Conditions: genetic perturbation: DOX-induced PTK7 shRNA knockdown.
Summary of the method: as §1
With CO[C@H]1CC[C@H](N2C(=O)CNc3ncc(-c4ccc(C(C)(C)O)nc4)nc32)CC1 [CC-223] the drug sensitivity score was 3.3. CC1(C)OCCn2c1nc1c(N3CCOCC3)nc(-c3cnc(N)nc3)nc12 [GDC-0084] gave a drug sensitivity score of 7. Cc1sc2c(c1C)C(c1ccc(Cl)cc1)=N[C@@H](CC(=O)NCCCCNC(=O)COc1cccc3c1C(=O)N(C1CCC(=O)NC1=O)C3=O)c1nnc(C)n1-2 (some centres undefined) [dBET1] gave a drug sensitivity score of 3.2.

Same assay, conditions: genetic perturbation: DOX-induced control shRNA
CO[C@H]1CC[C@H](N2C(=O)CNc3ncc(-c4ccc(C(C)(C)O)nc4)nc32)CC1 [CC-223] was tested, and the drug sensitivity score was 3.3. Compound CC1(C)OCCn2c1nc1c(N3CCOCC3)nc(-c3cnc(N)nc3)nc12 [GDC-0084] has a drug sensitivity score of 8.5. Cc1sc2c(c1C)C(c1ccc(Cl)cc1)=N[C@@H](CC(=O)NCCCCNC(=O)COc1cccc3c1C(=O)N(C1CCC(=O)NC1=O)C3=O)c1nnc(C)n1-2 (some centres undefined) [dBET1] gave a drug sensitivity score of 5.5.

The compounds below were run on FIMM-PDC7 (patient-derived ovarian cancer cells) in the same assay as above. Conditions: genetic perturbation: none (patient-derived cell culture).
Summary of the method: as §1
For CO[C@H]1CC[C@H](N2C(=O)CNc3ncc(-c4ccc(C(C)(C)O)nc4)nc32)CC1 [CC-223], the drug sensitivity score was 9.5. Compound CC1(C)OCCn2c1nc1c(N3CCOCC3)nc(-c3cnc(N)nc3)nc12 [GDC-0084] has a drug sensitivity score of 14.2. Compound Cc1sc2c(c1C)C(c1ccc(Cl)cc1)=N[C@@H](CC(=O)NCCCCNC(=O)COc1cccc3c1C(=O)N(C1CCC(=O)NC1=O)C3=O)c1nnc(C)n1-2 (some centres undefined) [dBET1] has a drug sensitivity score of 5.8.
